Results on 7 compounds are retold here after ChEMBL document CHEMBL2331086, “Pharmacological properties and predicted binding mode of arylmethylene quinuclidine-like derivatives at the α3β4 nicotinic acetylcholine receptor (nAChR)” (Bioorg Med Chem Lett, 2013).

What is called IC50 is the concentration at which inhibition is half-maximal. What is called Ki is a measure of affinity in units of concentration, obtained from inhibition or displacement. Higher therefore signals weaker binding. For orientation: Emax means the size of the effect at its maximum, as opposed to the concentration needed. By EC50 is commonly meant the midpoint of the concentration-response curve.

Experiment [1] deals with T1, Neuronal acetylcholine receptor; alpha3/beta4 (Homo sapiens, UniProt P30926+P32297). The experiment in a line: Reversible inhibition of human alpha3beta4 nAChR expressed in CHO cells assessed as inhibition of acetylcholine-induced response at 1 uM measured after compound washout by electrophysiological method. Format: cell-based.
The target in experiment [2] is T1, Neuronal acetylcholine receptor; alpha3/beta4. The experiment in a line: Non-competitive antagonist activity at human alpha3beta4 nAChR expressed in CHO cells assessed as inhibition of nicotine-induced calcium influx incubated for 30 mins prior to nicotine-induction by calcium-4 based FLIPR analysis. Format: cell-based.
The target is the same in experiment [3]. The experiment in a line: Agonist activity at human alpha3beta4 nAChR expressed in CHO cells at 10 uM by electrophysiological analysis relative to acetylcholine. Format: cell-based.
The target is the same in experiment [4]. The experiment in a line: Agonist activity at human alpha3beta4 nAChR expressed in CHO cells at 1 uM by electrophysiological analysis relative to acetylcholine. Format: cell-based.
Experiment [5] shares this target. The experiment in a line: Agonist activity at human alpha3beta4 nAChR expressed in CHO cells at 0.1 uM by electrophysiological analysis relative to acetylcholine. It is filed as cell-based.
For experiment [6] the target is unchanged. The experiment in a line: Displacement of [3H]epibatidine from human alpha3beta4 nAChR expressed in CHO cells after 2 hrs by liquid scintillation counting. It is filed as cell-based. (Loss of bound radioactivity is the signal in a displacement assay; it reports binding, not function.)
Experiment [7] shares this target. The experiment in a line: Inhibition of human alpha3beta4 nAChR expressed in CHO cells assessed as inhibition of calcium influx by calcium-4 based FLIPR analysis. Format: cell-based.
Experiment [8] shares this target. The experiment in a line: Agonist activity at human alpha3beta4 nAChR expressed in CHO cells assessed as calcium influx by calcium-4 based FLIPR analysis relative to nicotine. It is filed as cell-based.
Experiment [9] has the same target. The experiment in a line: Agonist activity at human alpha3beta4 nAChR expressed in CHO cells assessed as calcium influx by calcium-4 based FLIPR analysis. It is filed as cell-based.
Experiment [10] addresses T2, Muscarinic acetylcholine receptor M2 (Rattus norvegicus, UniProt P10980).
T2 sequence (P10980 whole entry): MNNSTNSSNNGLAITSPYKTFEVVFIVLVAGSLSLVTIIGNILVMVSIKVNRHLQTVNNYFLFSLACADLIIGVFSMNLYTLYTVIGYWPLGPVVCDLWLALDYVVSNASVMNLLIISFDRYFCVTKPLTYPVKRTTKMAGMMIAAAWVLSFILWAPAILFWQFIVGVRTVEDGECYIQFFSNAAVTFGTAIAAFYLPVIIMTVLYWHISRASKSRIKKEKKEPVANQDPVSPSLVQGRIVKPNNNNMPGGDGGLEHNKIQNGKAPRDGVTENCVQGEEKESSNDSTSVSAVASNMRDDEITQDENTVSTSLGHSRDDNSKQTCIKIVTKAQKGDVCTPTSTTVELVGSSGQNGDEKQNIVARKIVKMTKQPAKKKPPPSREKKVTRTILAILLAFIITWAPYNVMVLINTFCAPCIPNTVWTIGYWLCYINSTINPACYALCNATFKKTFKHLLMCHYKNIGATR
The experiment in a line: Antagonist activity at rat muscarinic M2 receptor isolated from brain.

Experiment [11] deals with T3, Muscarinic acetylcholine receptor M1 (Rattus norvegicus, UniProt P08482).
T3 sequence (P08482 whole entry): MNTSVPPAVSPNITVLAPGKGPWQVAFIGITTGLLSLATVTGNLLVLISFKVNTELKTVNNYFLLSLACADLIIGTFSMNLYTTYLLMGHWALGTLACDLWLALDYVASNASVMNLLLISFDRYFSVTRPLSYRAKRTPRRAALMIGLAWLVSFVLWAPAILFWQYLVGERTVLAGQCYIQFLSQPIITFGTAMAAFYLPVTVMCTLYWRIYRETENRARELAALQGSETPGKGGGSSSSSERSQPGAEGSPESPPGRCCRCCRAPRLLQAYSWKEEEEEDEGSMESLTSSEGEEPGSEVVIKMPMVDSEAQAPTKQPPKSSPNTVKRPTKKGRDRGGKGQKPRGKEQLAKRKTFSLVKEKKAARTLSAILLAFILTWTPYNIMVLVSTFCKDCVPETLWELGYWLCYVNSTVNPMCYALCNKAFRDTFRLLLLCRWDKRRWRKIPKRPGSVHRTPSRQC
The experiment in a line: Antagonist activity at rat muscarinic M1 receptor isolated from brain.

Activity calls are given as the source filed them. No cut-off for these calls is given here.

T1 sequence (P30926 whole entry): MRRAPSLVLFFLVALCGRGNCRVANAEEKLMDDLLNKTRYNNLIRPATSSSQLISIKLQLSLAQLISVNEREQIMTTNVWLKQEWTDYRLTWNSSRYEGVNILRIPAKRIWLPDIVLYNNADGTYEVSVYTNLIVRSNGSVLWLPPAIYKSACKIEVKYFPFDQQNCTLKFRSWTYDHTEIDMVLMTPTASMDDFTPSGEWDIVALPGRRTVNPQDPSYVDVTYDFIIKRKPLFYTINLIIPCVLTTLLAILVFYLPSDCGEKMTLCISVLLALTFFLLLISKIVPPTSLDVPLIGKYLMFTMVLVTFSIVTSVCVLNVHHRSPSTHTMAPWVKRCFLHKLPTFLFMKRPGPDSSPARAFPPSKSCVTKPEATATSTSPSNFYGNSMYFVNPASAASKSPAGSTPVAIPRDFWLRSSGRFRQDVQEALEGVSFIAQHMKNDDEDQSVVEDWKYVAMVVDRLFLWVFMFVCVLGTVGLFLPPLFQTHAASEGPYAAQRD
T1 sequence (P32297 whole entry): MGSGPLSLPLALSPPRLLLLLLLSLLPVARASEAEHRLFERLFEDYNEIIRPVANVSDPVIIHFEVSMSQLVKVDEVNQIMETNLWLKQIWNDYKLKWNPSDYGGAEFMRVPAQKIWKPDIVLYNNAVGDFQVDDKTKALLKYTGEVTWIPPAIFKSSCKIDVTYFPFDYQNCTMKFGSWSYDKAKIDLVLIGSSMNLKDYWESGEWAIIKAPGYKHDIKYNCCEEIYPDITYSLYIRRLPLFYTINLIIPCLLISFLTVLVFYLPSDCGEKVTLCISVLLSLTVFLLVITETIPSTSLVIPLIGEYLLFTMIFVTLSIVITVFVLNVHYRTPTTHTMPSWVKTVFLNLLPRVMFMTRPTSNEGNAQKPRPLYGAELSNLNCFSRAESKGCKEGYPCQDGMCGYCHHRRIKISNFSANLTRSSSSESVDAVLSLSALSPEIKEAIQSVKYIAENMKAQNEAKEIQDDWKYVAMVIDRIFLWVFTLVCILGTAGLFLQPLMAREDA

For `c1ccc(C(c2ccccc2)C2CN3CCC2CC3)cc1` (stereo not given), in [1], the inhibition entry is “Active”. Further, the IC50 came out at 0.4 µM in experiment [2] and 0.2 µM in experiment [7]. The Activity in experiment [3] was 7%; in [4], 2%; in experiment [5] it was 0.5%. Also, the Ki in experiment [6] was determined as 1.5 µM. Moreover, the Emax in [8] was determined as 14%. Moreover, in experiment [9], the EC50 is more than 10 µM.

As for `N#CC(c1ccccc1)C1CN2CCC1CC2` (stereo not given), the values for the Activity in experiment [3], in experiment [4] and in experiment [5] were 6%, 2% and 1%, respectively. The affinity in experiment [6] corresponds to a Ki of 2.1 µM. Besides, in [7], the IC50 turned out to be 23 µM. In addition, in experiment [8], the Emax was less than 10%.

Turning to `c1ccc(C(c2ccccc2)[N+]23CCN(CC2)CC3)cc1`, the figures for the Activity in experiment [3], in experiment [4] and in experiment [5] were 0.5%, 0.7% and 1%, respectively. Moreover, the Ki in experiment [6] was found to be 8.5 µM. For the same compound, the IC50 in experiment [7] was 15 µM. For the same compound, in experiment [8], the Emax is less than 10%.

On to `C(=C1/CN2CCC1CC2)/c1cccnc1`, for which the Activity is 56% in [3], 22% in experiment [4] and 5% in [5]. The compound also showed a Ki in experiment [6] of 1.6 µM. The IC50 in experiment [7] came out at 10 µM. In addition, in experiment [8], the Emax amounted to 31%. Besides, the EC50 in [9] turned out to be 2 µM.

For the compound `C(CN1CCCCC1)=C(c1ccccc1)c1ccccc1`, the IC50 is 0.372 µM in experiment [10], 0.0759 µM in [11], 0.38 µM in experiment [2] and 0.1 µM in experiment [7]. In addition, the inhibition entry in experiment [1] is “inactive”. In addition, the Activity in experiment [3] came out at 0.6%; in experiment [4] it was 0.7%; in [5], 0.5%. The compound further came in with a Ki in [6] of 2.2 µM. Besides, in experiment [8], the Emax came out at 31%. For the same compound, the EC50 in [9] is more than 10 µM.

`C(=C1/CN2CCC1CC2)/c1ccccc1`: the Activity in [3] was 7%; in experiment [4] it was 2%; in [5], 1%. Moreover, the Ki in experiment [6] is 2.1 µM. For the same compound, the IC50 in [7] was 6 µM. The Emax in [8] came out at 25%. Moreover, the EC50 in [9] is 3 µM.

In the case of `c1ccc(C[N+]23CCC(CC2)C(C(c2ccccc2)c2ccccc2)C3)cc1` (stereo not given), in experiment [1], the inhibition entry is “inactive”. For the same compound, the values for the IC50 in [2] and in [7] were 0.6 µM and 0.08 µM, respectively. Further, the Activity turned out to be 0.4% in experiment [3], 1% in experiment [4] and 0.5% in [5]. Moreover, in experiment [6], the Ki is 2.3 µM. Also, the Emax in [8] was 10%. In [9], the EC50 is 9 µM.
